# Laboratory results: patent US9376492B2, “Treatment of cancer” (Asclepiumm Limited, priority 2009, dated 2016)
# “Also recorded” adds a separate entry of the source.
# Experiments:
# MDCK cells = experiment: Blocking EMT assay (HGF/SF-induced EMT); format: cell-based; details: 2.5 ng/ml HGF/SF, 24 h
# Method: Blocking EMT Assay: Antibodies or peptides were added to 10% sub-confluent MDCK cells cultured in standard medium with 2.5 ng/ml HGF/SF in 96-well plates for 24 h. EMT was induced by HGF/SF in MDCK cells without any antibody or peptide treatment. The effects of different antibodies and peptides in blocking EMT were investigated by adding different concentrations of them to 10% sub-confluent MDCK cells cultured in standard medium with 2.5 ng/ml HGF/SF.
# [1] = tested on: human breast cancer MCF7 cells; experiment: Cell invasion assay (Matrigel), MCF7; format: cell-based; details: human breast cancer MCF7 cells in Matrigel
# Method: Cell Invasion Assay: Growth Factor-Reduced Matrigel™ Matrix (BD, Becton Dickinson Biosciences, Bedford, Mass., USA) was thawed in the fridge one day prior to its use. The Matrigel matrix was mixed by pre-cooled pipettes to homogeneity on ice. Four μl of the cell suspension (1×10^6 cells/ml) in standard medium without (Control) or with 1 μl different concentrations of antibody or peptide was mixed with 95 μl of Matrigel matrix in a cold Eppendorf tube. After thorough mixing using cooled pipettes, 30 μl of the cells in the Matrigel mixture was added to 48-well plates. The plates were incubated at 37° C. in a CO2 incubator for 1 h to polymerize the droplet mixtures. 250 μl of standard medium was added to cover the cell/Matrigel droplet and incubated for several days. Blindly-selected cell invasion images were recorded in four areas within a cell/Matrigel droplet by a Nikon 4500 Coolpix digital camera under the microscope.
Sequence,inhibition of EMT (MDCK cells),inhibition of cell invasion ability [1]
EELSAAHTLV (listed as Homo sapiens) [Peptide 7],significantly blocked; also recorded: significantly inhibited,significantly inhibited
KINATDADEPNTLNSKISYR (listed as Homo sapiens) [Peptide 4],significantly blocked; also recorded: significantly inhibited,significantly inhibited
